# Test results published in patent US6610694B1, “Condensed pyridazine compounds, their production and use” (Takeda Chemical Industries, Ltd., priority 1998, dated 2003).
# What was measured:
# [1] = system: histamine-induced skin reactions in guinea pigs; assay: Effect on histamine-induced skin reactions in guinea pigs (skin vascular permeability); assay type: in vivo, guinea pig; settings: oral 3 mg/kg
# Protocol: Effect on Histamine-induced Skin Reactions in Guinea Pigs
# Male Hartley guinea pigs weighing about 500 g were used. After the dorsal hair was shaved under ether anesthesia, 1 ml of a 2.5% pontamine sky blue solution was injected intravenously administered, and then 0.1 ml of histamine at 3 μg/ml was injected intradermally into 2 sites (left and right) in the back. Thirty minutes after the injection of histamine, the animals were killed by bleeding and the skin was removed. Two perpendicular diameters (mm) of each blue spot on the inside of the skin were measured and multiplied; the mean for the two products was taken as the microvascular permeability index. Test compounds were suspended in a 5% gum arabic solution and orally administered in a volume of 0.2 ml/100 g body weight 1 hour before histamine administration. Animals in the control group received the same volume of a 5% gum arabic solution. The suppression rate of the sample for the title reaction was calculated using Equation 1, and the results are given in Table 1.
# Inhibition (%) of histamine-induced skin reactions=100×(1−vascular permeability index in the presence of drug/vascular permeability index in control group) Equation 1
# In the same manner as Experimental Example 1a, the effects of various example compounds on histamine-induced skin reactions in guinea pigs were examined.
# [2] = system: guinea pig eosinophils; assay: Suppression of LTB4-induced chemotactic reaction in guinea pig eosinophils; assay type: cell-based
# Protocol: 1) Preparation of Guinea Pig Eosinophils
# To male Hartley guinea pigs, 2 ml of equine serum (Bio-Whittaker, Inc.) was intraperitoneally administered once weekly for 8 consecutive weeks. At 48 hours after final administration, 75 ml of physiological saline was intraperitoneally injected, after which the saline was recovered and centrifuged at 400×g for 5 minutes. The resulting sediment was suspended in 5 ml of Percoll solution (density (d)=1.07) and layered on top of the multiple layers of different densities of Percoll solution (density(d)=1.112, 5 ml; d=1.095, 10 ml; d=1.090, 10 ml; d=1.085, 5 ml), followed by centrifugation at 1,000×g for 25 minutes (20° C.). The cell layer formed at the interface between densities 1.112 and 1.095 was collected. Erythrocytes present in the collected cell sediment were removed by hypotonic treatment (suspended in water for […]).
# The cell sediment was washed 3 times with Hanks' solution containing 10 mM Hepes (Dojin Kagaku) (Hanks-Hepes) and suspended in a Hanks-Hepes solution containing 2% human serum albumin (Wako Pure Chemical Industry or Sigma) (Hanks-Hepes-HSA) to a final concentration of 5.56×10^6 cells/ml. Eosinophil purity was 90%, viability being over 98%.
# 2) Determination of Chemotactic Reaction Suppression
# To a 24-well petri dish, which serves as a lower chamber, 600 μl of Hanks-Hepes-HSA solution containing LTB4 (final concentration 10^−8 M, Cascade Biochemical Ltd.), was transferred, followed by incubation at 37° C. for 30 minutes in a carbon dioxide incubator. Separately, 200 μl of eosinophil suspension (5×10^6 cells/ml), previously incubated at 37 C for 15 minutes, was added to Chemotaxicell (polycarbonate membrane, pore size 3 μm, thickness 10 μm), which serves as an upper chamber, after the upper chamber was attached to the 24-well petri dish. After 2 hours of reaction in the CO2 incubator, the Chemotaxicell was removed; 60 μl of a 2% (w/v) solution of EDTA in physiological saline was added to the liquid in the lower chamber. After the mixture was on cooled ice, the cells migrating into the lower chamber were counted using a blood cell counter [Coulter Counter (trade name)]. The test drug, dissolved in N,N-dimethyl formamide (DMF), was added to both the upper and lower chambers to a final concentration of 10^-5 M.
# Chemotactic reaction suppression rate=[1−(number of migrating cells in the presence of drug/number of migrating cells in the absence of drug).]×100 Equation 2
# Suppression rates of LTB4-induced chemotactic reaction by test substances (1×10^−5 M) were calculated using the above equation.
# In the same manner as Experimental Example 2a, the percent suppression of LTB4-induced chemotactic reactions by various example compounds was calculated.
# [3] = same manner as Experimental Example 1a, Table 3
# [4] = LTB4-induced chemotaxis, same manner as Experimental Example 2a (1×10^−5 M), Table 4
# [5] = 1 hour before intradermal histamine, Table 1
# [6] = LTB4 10^−8 M-induced chemotaxis, test substance 1×10^−5 M, Table 2
SMILES,melting point [°C],"Suppression (%) of histamine-induced skin vascular permeability elevation, oral administration at 3 mg/kg [1, 3] [%]","Suppression rate (%) [2, 4] [%]","Suppression (%) of histamine-induced skin vascular permeability elevation, oral administration at 3 mg/kg [1, 5] [%]","Suppression rate (%) [2, 6] [%]"
"CCOC(=O)Cn1nc2ccc(NCCCN3CCC(OC(c4ccccc4)c4ccccc4)CC3)nn2c1=O [Example 7b, ethyl 2-[6-[3-[4-(Diphenylmethoxy)piperidino]propylamino]-3-oxo[1,2,4]triazolo[4,3-b]pyridazin-2(3H)-yl]acetate]",137 to 139,89,26,–,–
"CCOC(=O)C(C)(C)n1nc2ccc(NCCCN3CCC(OC(c4ccccc4)c4ccccc4)CC3)nn2c1=O.Cl [Example 8b, Ethyl 2-[6-[3-[4-(Diphenylmethoxy)piperidino]propylamino]-3-oxo[1,2,4]triazolo[4,3-b]pyridazin-2(3H)-yl]-2-methylpropionate Hydrochloride]",162,74,57,–,–
"CC(C)(C)c1nnc2ccc(OCCCN3CCC(OC(c4ccccc4)c4ccccc4)CC3)nn12 [Example 13a, 3-tert-Butyl-6-[3-[4-(diphenylmethoxy)piperidino]propoxy][1,2,4]triazolo[4.3-b]pyridazine]",–,–,–,79,41

# Continued, in another order:
melting point [°C],SMILES,"Suppression (%) of histamine-induced skin vascular permeability elevation, oral administration at 3 mg/kg [1, 3] [%]","Suppression rate (%) [2, 4] [%]","Suppression (%) of histamine-induced skin vascular permeability elevation, oral administration at 3 mg/kg [1, 5] [%]","Suppression rate (%) [2, 6] [%]"
124 to 127,"c1ccc(C(OC2CCN(CCCCCCNc3ccc4nncn4n3)CC2)c2ccccc2)cc1 [Example 10a, 6-[6-[4-(Diphenylmethoxy)piperidino]hexylamino][1,2,4]triazolo[4,3-b]pyridazine]",–,–,91,60
102 to 104,"O=C(O)c1nnc2ccc(NCCCN3CCC(OC(c4ccccc4)c4ccccc4)CC3)nn12 [Example 22a, 6-[3-[4-(Diphenylmethoxy)piperidino]propylamino][1,2,4]triazolo[4,3-b]pyridazine-3-carboxylic Acid]",–,–,86,50
